Reference: patent US20100022559A1, “BISOXIMES AS FUNGICIDES” (BAYER CROPSCIENCE AG, priority 2006, published 2010)

Test: logP determination by HPLC on a reversed-phase column (C 18), EEC Directive 79/831 Annex V.A8
Type: physicochemical
Details: [a] acidic range, pH 2.3, 0.1% aqueous phosphoric acid and acetonitrile
Description: The stated logP values were determined in accordance with EEC Directive 79/831 Annex V.A8 by HPLC (high performance liquid chromatography) on a reversed-phase column (C 18). Temperature: 43° C.

Structure (SMILES)	logP
C/C(=N\OCC(C)(C)CON)c1ccc(C)c(C)n1 [XII-6]	0.98^[a]

Same assay, conditions: [b] LC-MS, acidic range, pH 2.7, 0.1% aqueous formic acid and acetonitrile

Structure (SMILES)	logP
C/C(=N\OCC(C)(C)CON)c1ccc(C)c(C)n1 [XII-6]	0.98^[b]

Same assay, conditions: [c] LC-MS, neutral range, pH 7.8, 0.001 molar aqueous ammonium bicarbonate solution and acetonitrile

Structure (SMILES)	logP
C/C(=N\OCC(C)(C)CON)c1ccc(C)c(C)n1 [XII-6]	2.94^[c]

Same assay, conditions: method marked [a] in Table 1

Structure (SMILES)	logP
CC(=NOCC(C)CON=C(C)c1nc2ccccc2[nH]1)c1nc2ccccc2[nH]1 (mixture of isomers) [compound 584]	2.05^[a]
Cc1cccc(C(=NOCC(C)CON=C(c2ccccc2)c2cccc(C)n2)c2ccccc2)n1 (mixture of isomers) [Compound 659]	4.09^[a]

Now from value to compound:

logP	Structure (SMILES)
5.69^[a]	CCC(=NOCC1(CON=C(CC)c2cccc(C)n2)CC(c2ccccc2Cl)=NO1)c1cccc(C)n1 (stereo not drawn) [compound 654]
7.36^a]	CC(=NOCC(C)(C)CON=C(C)c1cccc(-c2cc(Cl)cc(Cl)c2)n1)c1cccc(-c2cc(Cl)cc(Cl)c2)n1 [compound 578]

Same assay, conditions: method marked [b] in Table 1

Structure (SMILES)	logP
CC(=NOCCCCCCON=C(C)c1sc(C)nc1C)c1cccc(C)n1 (single isomer, unassigned) [compound 543]	4.74^[b] (isomer B)
C=C(CON=Cc1cccc(C)n1)CON=Cc1cccc(C)n1 [compound 667]	2.16^[b]
CC(=NOCc1ccc(CON=C(C)c2cccc(C)n2)cc1)c1cccc(C)n1 [compound 705]	4.27^[b]
CC(=NOCC(C)(C)CON=C(C)c1ccc(C)o1)c1ccc(C)o1 [Compound 698]	5.00^[b]
CC(=NOCc1ccccc1CON=C(C)c1cccc(C)n1)c1cccc(C)n1 [compound 703]	4.26^[b]
C/C(=N\OCC1(CO/N=C(\C)c2ccc(C)c(C)n2)CC(c2ccccc2Cl)=NO1)c1ccc(C)c(C)n1 [compound 634]	4.3^[b]
N/C(=N\OCc1cccc(CO/N=C(\N)c2nc(C3CC3)cc(C3CC3)n2)c1)c1nc(C2CC2)cc(C2CC2)n1 [compound 716]	3.76^[b]
CCCC(=NOCC1(CON=C(CCC)c2cccc(C)n2)CC(c2cccc(Cl)c2)=NO1)c1cccc(C)n1 (stereo not drawn) [compound 624]	6.58^[b]
CC(=NOCc1ccccc1CON=C(C)c1nc(C)c(C)s1)c1nc(C)c(C)s1 [compound 730]	5.71^[b]

Now from value to compound:

logP	Structure (SMILES)
3.28^[b]	CC(=NOCC1(CON=C(C)c2cc(C)cc(C)n2)CC(c2ccc(Cl)cc2)=NO1)c1cc(C)cc(C)n1 (stereo not drawn) [compound 644]
4.51^[b]	C/C(=N\OCC1(CO/N=C(\C)c2ccc(C)c(C)n2)CC(c2cccc(Cl)c2)=NO1)c1ccc(C)c(C)n1 [compound 635]
3.00^b] (Isomer A)	C=C(CON=C(C)c1cccc(C)n1)CON=C(C)c1sc(C)nc1C (single isomer, unassigned) [compound 544]
2.87^b]	CCOC(CON=C(C)c1cccc(C)n1)CON=C(C)c1cccc(C)n1 (stereo not drawn) [Compound 586]

Same assay, conditions: method marked [c] in Table 1

Structure (SMILES)	logP
CCOC(CON=C(C)c1cccc(C)n1)CON=C(C)c1cccc(C)n1 (stereo not drawn) [Compound 586]	4.76^[c]

Same assay, conditions: method marker [a] (footnote not shown); isomer A / isomer B / isomer mixture as noted in the cell

Structure (SMILES)	logP
CCc1cccc(C(C)=NOCCCON=C(C)c2cccc(CC)n2)n1 [Compound 180]	5.43^[a]
CC(=NOCCCON=C(C)c1ccc(C)cn1)c1ccc(C)cn1 [Compound 81]	2.90^[a]

Same assay, conditions: method marker [b]; isomer A / isomer B / isomer mixture as noted in the cell

Structure (SMILES)	logP
C=C(CON=C(C)c1cccc(C)n1)CON=C(N)c1ccc(C)n1C [compound 199]	2.23^[b]
CC(=NOCC(F)CON=C(C)c1cccc(C)n1)c1cccc(C)n1 (stereo not drawn) [Compound 212]	2.94^[b]
C=C(CON=C(C)c1ccc(C)nc1)CON=C(C)c1cccc(C)n1 (single isomer, unassigned) [compound 200]	1.92^[b] (isomer A)
COc1cccc(C(C)=NOCC(=O)CON=C(C)c2cccc(OC)n2)n1 [compound 247]	4.61^[b]
C=C(CON=C(C)c1ccc(C)nc1)CON=C(C)c1ccc(C)nc1 [compound 22]	1.37^[b]
C=C(CON=C(C)c1cccc(C)n1)CON=C(N)c1nc(C2CC2)cc(C2CC2)n1 [Compound 243]	3.09^[b]

Further lines, results first:

logP	Structure (SMILES)
2.82^[b]	C=C(CON=C(C)c1ccc(C)c(C)n1)CON=C(C)c1ccc(C)c(C)n1 [Compound 67]
5.25^[b]	C=C(CON=C(C)c1nc(C)c(C)s1)CON=C(C)c1nc(C)c(C)s1 (single isomer, unassigned) [compound 68]
7.00^b]	C=C(CON=C(C)c1cc(C)c2ccccc2n1)CON=C(C)c1cc(C)c2ccccc2n1 [compound 160]
2.67^[b]	CC(=NOCCCON=C(C)c1ccccn1)c1ccccn1 [compound 31]
5.03^[b]	C=C(CON=C(C)c1cccc(C)c1)CON=C(C)c1cccc(C)n1 [compound 205]
1.84^[b]	CC(=NOCCOCCON=C(C)c1cccc(C)n1)c1cccc(C)n1 [Compound 181]
5.15^[b]	C=C(CON=C(C)c1ccc(C(F)(F)F)cn1)CON=C(C)c1cccc(C)n1 [Compound 66]
1.23^b]	CC(=NOCCCON=C(C)c1ccncc1)c1ccncc1 [compound 29]
3.64^[b]	C=C(CON=C(C)c1ncccc1Cl)CON=C(C)c1ncccc1Cl [compound 144]

Same assay, conditions: reversed-phase HPLC column (C 18); HCO2H; HPLC reversed-phase column (C 18), 43° C.; read-out: logP (HCO2H)

Structure (SMILES)	chromatographic logP
C/C(=N\OCC(CO/N=C(\C)c1cccc(C)n1)=NO)c1cccc(C)n1 [(2E,9E)-2,10-bis(6-methylpyridin-2-yl)-4,8-dioxa-3,9-diazaundeca-2,9-dien-6-one oxime]	1.91

Same assay, conditions: value marked [a]

Structure (SMILES)	logP
CC(=NOCCC(C)CCON=C(C)c1ccc(C(F)(F)F)cn1)c1ccc(C(F)(F)F)cn1 (stereo not drawn) [compound 832]	7.36^[a]
Cc1cccc(C(Cl)=NOCC(C)CON=C(Cl)c2cccc(C)n2)n1 (stereo not drawn) [Compound 824]	4.58^[a]
CC(=NOCCCCON=C(C)c1cccc(C)n1)c1ccc2ccccc2c1 [compound 445]	5.72^[a]
CC(=NOCC(C)CON=C(C)c1csc(C)n1)c1csc(C)n1 (stereo not drawn) [compound 517]	3.52^[a]
CC(=NOC(=O)NCCCC(C)CNC(=O)ON=C(C)c1ccc(C)c(C)n1)c1ccc(C)c(C)n1 (stereo not drawn) [compound 861]	2.55^[a]
CCC(=NOCC(C)(C)CON=C(CC)c1cccc(C)n1)c1cccc(C)n1 [Compound 277]	6.11^[a]
CC(=NOCC(C)CON=C(C)c1ccc(C)c(C)n1)c1cc(Cl)cc(C)n1 (stereo not drawn) [compound 876]	6.52^[a]
CC(=NOCC(C)CON=C(C)c1cc(Cl)cc(C)n1)c1cc(Cl)cc(C)n1 (stereo not drawn) [compound 792]	7.36^[a]

Same assay, conditions: value marked [b]

Structure (SMILES)	logP
CC(=NOC/C=C/CON=C(C)c1nc(C)c(C)s1)c1nc(C)c(C)s1 (single isomer, unassigned) [compound 766]	5.08^[b] (isomer A)
CC(=NOCCCCCCON=C(C)c1cnnc(C)n1)c1cccc(C)n1 [compound 344]	4.15^[b]
CC(=NOCC(C)CON=C(C)c1cccc(Cc2ccccc2)n1)c1cccc(C)n1 (stereo not drawn) [Compound 420]	6.09^[b]
C=CCCC(=NOCCCCCCON=C(C)c1cccc(C)n1)c1ncccc1C (single isomer, unassigned) [compound 523]	4.91^[b] (isomer A)
CCC(C)(CON=C(C)c1cc(C)cc(C)n1)CON=C(C)c1cc(C)cc(C)n1 (stereo not drawn) [Compound 794]	3.91^[b]
CCCc1cccc(C(C)=NOCCCCCCON=C(C)c2cccc(C)n2)n1 [compound 463]	6.79^[b]
CC(=NOCC(C)(C)CON=C(C)c1cccc(C)n1)c1ccc(Cl)cc1 [compound 485]	6.22^[b]
Cc1cccc(C=NOCCCCON=Cc2cccc(C)n2)n1 [compound 776]	2.16^[b]
CC(=NOCC(C)(C)CON=C(C)c1cc(C)cc(C)n1)c1cccc(C)n1 [Compound 487]	3.33^[b]
COCc1nc(C(N)=NOC/C=C/CON=C(N)c2nc(COC)c(C)c(COC)n2)nc(COC)c1C (single isomer, unassigned) [compound 769]	1.75^[b] (isomer B)
CC(=NOCCCCCCON=C(C)c1ccnc(C)n1)c1cccc(C)n1 [compound 348]	4.51^[b]
CC(=NOCCCCON=C(C)c1cc(C)cc(C)n1)c1cccc(C)n1 [compound 447]	2.41^[b]
CC(=NOCC1(CON=C(C)c2ccc(C)c(C)n2)CCCCC1)c1ccc(C)c(C)n1 [Compound 320]	5.34^[b]
CC(=NOCCCCON=C(C)c1ncccc1C)c1cccc(C)n1 [compound 451]	3.02^[b]

More lines, now with the values ahead:

logP	Structure (SMILES)
6.16^[b]	CC(=NOCCCCCCON=C(C)c1cccc2ccccc12)c1cccc(C)n1 [compound 395]
3.65^[b]	C=C(CON=C(C)c1cccc(C)n1)CON=C(c1ccccc1)c1cccc(C)n1 [compound 357]
2.37^[b] (isomer A)	C=C(CON=C(C)c1nc(C)ccc1C)CON=C(C)c1nc(C)ccc1C (single isomer, unassigned) [compound 307]
3.15^[b] (isomer B)	C=C(CON=C(C)c1ccccn1)CON=C(C)c1cccc(C)n1 (single isomer, unassigned) [compound 400]
3.52^[b]	CC(=NOCC(C)CON=C(C)c1csc(C)n1)c1csc(C)n1 (stereo not drawn) [compound 517]
7.12^[b]	CC(=NOCCCCCCON=C(C)c1cccc(C(C)C)n1)c1cccc(C)n1 [compound 465]
4.56^[b]	CC(=NOCCCCCCON=C(c1cccc(C)n1)C1CC1)c1cccc(C)n1 [compound 347]
4.85^[b]	CC(=NOCCCCON=C(C)c1ccccc1Cl)c1cccc(C)n1 [compound 379]
4.61^[b]	CC(=NOCC(C)(C)CON=C(c1ccccc1)c1cccc(C)n1)c1cccc(C)n1 (single isomer, unassigned) [compound 879]
2.28^[b]	CC(=NOCC1(CON=C(C)c2cccc(NCC3CC3)n2)CCC1)c1cccc(NCC2CC2)n1 [compound 850]
6.52^[b]	CC(=NOCC(C)CON=C(C)c1ccc(C)c(C)n1)c1cc(Cl)cc(C)n1 (stereo not drawn) [compound 876]
5.31^[b]	COc1cccc(C(C)=NOCC(C)(C)CON=C(C)c2cccc(C)n2)c1 [compound 484]

Same assay, conditions: value marked [c]

Structure (SMILES)	logP
CCC(C)(CON=C(C)c1cc(C)cc(C)n1)CON=C(C)c1cc(C)cc(C)n1 (stereo not drawn) [Compound 794]	7.18^[c]
CC(=NOCC(C)CON=C(C)c1cc(Cl)cc(C)n1)c1cc(Cl)cc(C)n1 (stereo not drawn) [compound 792]	7.36^[c]
CC(=NOCC1(CON=C(C)c2ccc(C)c(C)n2)CCCCC1)c1ccc(C)c(C)n1 [Compound 320]	7.36^[c]

Second part, the compound after the results:

logP	Structure (SMILES)
4.52^[c]	CC(=NOCC(C)(C)CON=C(c1ccccc1)c1cccc(C)n1)c1cccc(C)n1 (single isomer, unassigned) [compound 879]
7.36^[c]	CC(=NOCC(C)CON=C(C)c1ccc(C)c(C)n1)c1cc(Cl)cc(C)n1 (stereo not drawn) [compound 876]
